One assay has as its system Bemisia tabaci. In words: Bemisia tabaci leaf dip test (brinjal leaves, whitefly adults). To be noted: foliar, dead and moribund whitefly adults 72 h after release, compared to untreated controls, read-out: percent mortality. Format: in vivo. The method, boiled down: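 Brinjal leaves were dipped 10 s in compound diluted in 0.01% Triton-X, dried, and placed on agar, then exposed to freshly emerged whitefly adults at 25° C, 70% RH. Dead plus moribund adults were counted at 72 h, and percent mortality was calculated relative to untreated controls.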

The next assay deals with Myzus persicae. In words: Myzus persicae leaf dip test (capsicum leaves, third instar nymphs). To be noted: foliar, dead and moribund third instar nymphs 72 h after release, compared to untreated controls, read-out: percent mortality. Format: in vivo. The method, then: The leaf dip method was used for testing, wherein the required quantity of the compound was weighed and dissolved in a tube containing a solvent solution. The tube was put on a vortex at 2000 rpm for proper mixing and then diluted with a 0.01% Triton-X solution to the desired test concentration. Capsicum leaves were dipped in the compound solution for 10 seconds, shade dried for 20 min and then placed, with the abaxial side of the leaf up, in single cells of a bio-assay tray containing 4 ml of a solidified 1% agar-agar solution. Known numbers of third instar nymphs of Myzus persicae, collected in petri plates, were released into the cell with the treated leaf and the cell was covered with a perforated lid for better aeration. The trays were kept in a plant growth chamber at a temperature of 25° C. and a relative humidity of 70%. Observations on dead, moribund and alive nymphs were recorded 72 h after the release. Percent mortality was calculated by combining dead and moribund nymphs and comparing the result with the one of the untreated controls. The compounds

This note sets out measurements from patent publication US20250282754A1, “BICYCLIC COMPOUNDS AND THEIR USE AS PEST CONTROL AGENTS” (Pl Industries Ltd., priority 2022, published 2025).

For orientation: mortality means the share of the test organisms that died. Regarding `CCS(C)(=O)=Nc1ccc2nn(-c3cncnc3)cc2n1` (centres unmarked) [Compound 314], the mortality at 300 ppm with Bemisia tabaci and with Myzus persicae was at least 70% each time.

Consider `CCS(=O)(=Nc1ccc2nn(-c3cncc(F)c3)cc2n1)C(C)C` (centres unmarked) [Compound 312], for which the mortality at 300 ppm in the assay with Bemisia tabaci and in the assay with Myzus persicae was at least 70% in each case.

As to `CCCS(C)(=O)=Nc1ccc2nn(-c3cccnc3)cc2n1` (centres unmarked) [Compound 239], the mortality at 300 ppm with Bemisia tabaci and in the assay with Myzus persicae was at least 70% throughout.

Consider `CCn1c(OC)nn(-c2ccc3nn(-c4cccnc4)cc3c2)c1=O` [Compound 123, 4-ethyl-5-methoxy-2-(2-(pyridin-3-yl)-2H-indazol-5-yl)-2,4-dihydro-3H-1,2,4-triazol-3-one], for which the mortality at 300 ppm in the assay on Bemisia tabaci and in the assay on Myzus persicae was at least 70% throughout.

`COc1nn(-c2ccc3nn(-c4cncnc4)cc3c2)c(=O)n1C` [Compound 119, 5-methoxy-4-methyl-2-(2-(pyrimidin-5-yl)-2H-indazol-5-yl)-2,4-dihydro-3H-1,2,4-triazol-3-one]: the mortality at 300 ppm in the assay on Bemisia tabaci and in the assay on Myzus persicae was at least 70% each time.

As for `CCC(C)S(=N)(=O)c1ccc2nn(-c3cncc(F)c3)cc2c1` (centres unmarked) [Compound 479, sec-butyl(2-(5-fluoropyridin-3-yl)-2H-indazol-5-yl)(imino)-λ^6-sulfanone], the mortality at 300 ppm in the assay on Bemisia tabaci and with Myzus persicae was at least 70% each time.

For the compound `CCCS(=N)(=O)c1ccc2nn(-c3cncc(F)c3)cc2c1` (centres unmarked) [Compound 478, (2-(5-fluoropyridin-3-yl)-2H-indazol-5-yl)(imino)(propyl)-λ^6-sulfanone], the mortality at 300 ppm in the assay with Bemisia tabaci and with Myzus persicae was at least 70% each time.

Consider `CC(C)S(=O)(=Nc1ccc2nn(-c3cccnc3)cc2n1)C(C)C` [Compound 255], for which the mortality at 300 ppm in the assay with Bemisia tabaci and in the assay on Myzus persicae was at least 70% each time.

With `N=S(=O)(CC(F)(F)F)c1ccc2nn(-c3cncnc3)cc2c1` (centres unmarked) [Compound 458, imino(2-(pyrimidin-5-yl)-2H-indazol-5-yl)(2,2,2-trifluoroethyl)-λ^6-sulfanone], the mortality at 300 ppm in the assay with Bemisia tabaci and with Myzus persicae was at least 70% throughout.

`CC(C)S(C)(=O)=Nc1ccc(Cl)c2nn(-c3cccnc3)cc12` (centres unmarked) [Compound 218]: the mortality at 300 ppm in the assay on Bemisia tabaci and in the assay with Myzus persicae was at least 70% each time.

As for `COCCS(C)(=O)=Nc1ccc2nn(-c3cncnc3)cc2n1` (centres unmarked) [Compound 237], the mortality at 300 ppm in the assay on Bemisia tabaci and with Myzus persicae was at least 70% in each case.

Take `CC(C)CS(=N)(=O)c1ccc2nn(-c3cccnc3)cc2c1` (centres unmarked) [Compound 557, imino(isobutyl)(2-(pyridin-3-yl)-2H-indazol-5-yl)-λ^6-sulfanone]: the mortality at 300 ppm in the assay on Bemisia tabaci and with Myzus persicae was at least 70% throughout.

In the case of `CCN=S(=O)(c1ccc2nn(-c3cccnc3)cc2c1)C(C)C` (centres unmarked) [Compound 383], the mortality at 300 ppm with Bemisia tabaci and with Myzus persicae was at least 70% in each case.

With `CCS(=N)(=O)c1ccc2nn(-c3cncnc3)cc2c1` (centres unmarked) [Compound 455, ethyl(imino)(2-(pyrimidin-5-yl)-2H-indazol-5-yl)-λ^6-sulfanone], the mortality at 300 ppm in the assay on Bemisia tabaci and in the assay with Myzus persicae was at least 70% each time.

As for `CC(=O)N=S(=O)(c1ccc2nn(-c3cccnc3)cc2c1)C1CCCC1` (centres unmarked) [Compound 581], the mortality at 300 ppm in the assay with Myzus persicae is at least 70%.

With `CS(=O)(=Nc1ccc2nn(-c3cccnc3)cc2n1)C1CCCCC1` (centres unmarked) [Compound 216], the mortality at 300 ppm in the assay on Bemisia tabaci and in the assay with Myzus persicae was at least 70% in each case.

As to `CCS(C)(=O)=Nc1ccc2nn(-c3cccnc3)cc2n1` (centres unmarked) [Compound 248], the mortality at 300 ppm in the assay on Bemisia tabaci and in the assay on Myzus persicae was at least 70% in each case.

Regarding `CCCS(=O)(=Nc1ccc2nn(-c3cccnc3)cc2n1)C(C)C` (centres unmarked) [Compound 254], the mortality at 300 ppm in the assay on Bemisia tabaci and with Myzus persicae was at least 70% throughout.

Regarding `CCCS(=O)(CC)=Nc1cccc2nn(-c3cccnc3)cc12` (centres unmarked) [Compound 136], the mortality at 300 ppm in the assay on Myzus persicae was at least 70%.

As for `CC(C)S(C)(=O)=Nc1cnc2nn(-c3cccnc3)cc2c1` (centres unmarked) [Compound 156], the mortality at 300 ppm with Myzus persicae is at least 70%.

As for `CCS(=O)(CC)=Nc1ccc2nn(-c3cccnc3)cc2n1` [Compound 249], the mortality at 300 ppm with Bemisia tabaci and with Myzus persicae was at least 70% throughout.

As for `CC(C)S(=O)(CCC(F)(F)F)=Nc1cccc2nn(-c3cccnc3)cc12` (centres unmarked) [Compound 102], the mortality at 300 ppm with Myzus persicae was at least 70%.

In the case of `CCCS(=O)(=Nc1ccc2nn(-c3cccnc3)cc2c1)C(C)C` (centres unmarked) [Compound 256], the mortality at 300 ppm in the assay on Myzus persicae was at least 70%.

Consider `CC(=O)N=S(=O)(CCCF)c1ccc2nn(-c3cncc(F)c3)cc2c1` (centres unmarked) [Compound 487], for which, in the assay with Myzus persicae, the mortality at 300 ppm was at least 70%.

For `COc1nn(-c2ccc3nn(-c4cccnc4)cc3c2)c(=O)n1C` [Compound 110, 5-methoxy-4-methyl-2-(2-(pyridin-3-yl)-2H-indazol-5-yl)-2,4-dihydro-3H-1,2,4-triazol-3-one], the mortality at 300 ppm in the assay on Bemisia tabaci and in the assay with Myzus persicae was at least 70% in each case.

Regarding `COc1nn(-c2ccc3nn(-c4cccnc4)cc3c2)c(=O)n1Cc1ccc(F)cc1` [Compound 124, 4-(4-fluorobenzyl)-5-methoxy-2-(2-(pyridin-3-yl)-2H-indazol-5-yl)-2,4-dihydro-3H-1,2,4-triazol-3-one], the mortality at 300 ppm in the assay with Bemisia tabaci and with Myzus persicae was at least 70% each time.

Consider `N=S(=O)(CCCF)c1ccc2nn(-c3cncc(F)c3)cc2c1` (centres unmarked) [Compound 482, (3-fluoropropyl)(2-(5-fluoropyridin-3-yl)-2H-indazol-5-yl)(imino)-λ^6-sulfanone], for which the mortality at 300 ppm with Bemisia tabaci and in the assay on Myzus persicae was at least 70% each time.

In the case of `CCC(CC)S(=N)(=O)c1ccc2nn(-c3cncc(F)c3)cc2c1` (centres unmarked) [Compound 480, (2-(5-fluoropyridin-3-yl)-2H-indazol-5-yl)(imino)(pentan-3-yl)-λ^6-sulfanone], the mortality at 300 ppm in the assay with Bemisia tabaci and in the assay on Myzus persicae was at least 70% each time.

Consider `CCS(=N)(=O)c1ccc2nn(-c3cncc(F)c3)cc2c1` (centres unmarked) [Compound 460, ethyl(2-(5-fluoropyridin-3-yl)-2H-indazol-5-yl)(imino)-λ^6-sulfanone], for which, in the assay with Myzus persicae, the mortality at 300 ppm is at least 70%.

For `CCC(C)S(=O)(=Nc1ccc2nn(-c3cccnc3)cc2c1)C(C)C` (centres unmarked) [Compound 291], the mortality at 300 ppm with Bemisia tabaci and in the assay on Myzus persicae was at least 70% each time.

Regarding `N#CCCCS(=N)(=O)c1ccc2nn(-c3cccnc3)cc2c1` (centres unmarked) [Compound 564, 4-(2-(pyridin-3-yl)-2H-indazole-5-sulfonimidoyl)butanenitrile], the mortality at 300 ppm in the assay on Myzus persicae was at least 70%.

Turning to `CCC(C)S(=O)(=Nc1ccc2nn(-c3cccnc3)cc2n1)C(C)C` (centres unmarked) [Compound 287], the mortality at 300 ppm with Bemisia tabaci and in the assay on Myzus persicae was at least 70% each time.

Turning to `CC(C)S(=O)(CC1CC1)=Nc1ccc2nn(-c3cccnc3)cc2n1` (centres unmarked) [Compound 288], the mortality at 300 ppm in the assay with Bemisia tabaci and in the assay with Myzus persicae was at least 70% in each case.

On to `CS(C)(=O)=Nc1ccc2nn(-c3cccnc3)cc2n1` [Compound 224], for which the mortality at 300 ppm in the assay on Bemisia tabaci and in the assay with Myzus persicae was at least 70% throughout.

Regarding `CC(C)S(C)(=O)=Nc1cccc2nn(-c3cncc(F)c3)cc12` (centres unmarked) [Compound 90], the mortality at 300 ppm with Myzus persicae was at least 70%.

In the case of `CCCS(=O)(=NC(C)=O)c1ccc2nn(-c3cncc(F)c3)cc2c1` (centres unmarked) [Compound 483], the mortality at 300 ppm in the assay with Myzus persicae was at least 70%.
